The target of this assay is T1, LXRα (Homo sapiens, UniProt Q13133).
T1 construct: Co-transfection expression plasmids, comprising full-length LXRα (pCMX-h LXRα); expressed in transfected cells; host or cells: CV-1 African green monkey kidney cells, transient transfection with FuGENE6
T1 sequence (Q13133 1-447): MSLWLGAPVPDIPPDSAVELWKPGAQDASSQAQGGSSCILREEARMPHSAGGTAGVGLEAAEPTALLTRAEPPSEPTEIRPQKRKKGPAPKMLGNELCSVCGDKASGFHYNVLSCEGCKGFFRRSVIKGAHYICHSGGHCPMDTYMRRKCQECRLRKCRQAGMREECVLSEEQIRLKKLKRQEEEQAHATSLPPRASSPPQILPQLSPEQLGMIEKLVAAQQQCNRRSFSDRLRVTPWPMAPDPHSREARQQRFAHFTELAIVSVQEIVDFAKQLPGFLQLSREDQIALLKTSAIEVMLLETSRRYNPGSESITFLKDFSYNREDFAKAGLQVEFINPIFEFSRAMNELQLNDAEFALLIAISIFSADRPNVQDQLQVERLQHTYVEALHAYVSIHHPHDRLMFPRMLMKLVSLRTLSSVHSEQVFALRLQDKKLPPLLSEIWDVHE
T1 sequence (P19793 1-462 partner): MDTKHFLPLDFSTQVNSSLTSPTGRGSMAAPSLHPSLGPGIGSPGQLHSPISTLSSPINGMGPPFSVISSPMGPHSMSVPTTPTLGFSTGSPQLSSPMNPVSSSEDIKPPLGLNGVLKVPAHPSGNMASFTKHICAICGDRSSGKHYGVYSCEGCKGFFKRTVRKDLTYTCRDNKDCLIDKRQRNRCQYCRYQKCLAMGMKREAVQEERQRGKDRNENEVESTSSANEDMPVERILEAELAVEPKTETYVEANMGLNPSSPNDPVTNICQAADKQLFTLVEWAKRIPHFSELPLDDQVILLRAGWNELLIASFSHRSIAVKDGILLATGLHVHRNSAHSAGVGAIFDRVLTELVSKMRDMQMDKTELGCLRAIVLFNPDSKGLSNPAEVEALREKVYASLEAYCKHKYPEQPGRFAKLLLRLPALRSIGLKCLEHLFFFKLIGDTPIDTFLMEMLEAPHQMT
In words: LXR/LXRE co-transfection assay (LXRα). It is filed as cell-based. The note with it: for EC50: CV-1 cells, LXRE luciferase reporter; for Emax: efficacy relative to high control N-(3-((4-fluorophenyl)-(naphthalene-2-sulfonyl)amino)propyl)-2,2-dimethylpropionamide, read-out: LXRα Eff (%). An excerpt:
To measure the ability of compounds to activate or inhibit the transcriptional activity of LXR in a cell based assay, the co-transfection assay was used. It has been shown that LXR functions as a heterodimer with RXR. For the co-transfection assay, expression plasmids for LXRα and LXRβ are introduced separately via transient transfection into mammalian cells along with a luciferase reporter plasmid that contains one copy of a DNA sequence that is bound by LXR-RXR heterodimers (LXRE; Willy, P. et. al. 1995). LXRs heterodimerize with the endogenous RXR. Treatment of transfected cells with an LXR agonist increases the transcriptional activity of LXR, which is measured by an increase in luciferase activity.
Co-transfection expression plasmids, comprising full-length LXRα (pCMX-h LXRα or LXRβ (pCMX-hLXRβ), reporter plasmid (LXREx1-Tk-Luciferase), and control (pCMX-Galactosidase expression vector) (Willey et al. Genes & Development 9 1033-1045 (1995)).
CV-1 cells were prepared 24 hours prior to the experiment by plating them into T-175 flasks or 500 cm^2 dishes in order to achieve 70-80% confluency on the day of the transfection. The number of cells to be transfected was determined by the number of plates to be screened. Each well of a 384 well plate requires ˜8000 cells. DNA Transfection Reagent was prepared by mixing the required plasmid DNAs with a cationic lipid transfection reagent FuGENE6 (Roche) by following the instructions provided with the reagents. Optimal DNA amounts were determined empirically per cell line and size of vessel to be transfected. For each T175 cm^2 flask a total of 20 μg of DNA, 60 μl of Fugene 6 and 1 ml of Optimem was mixed and added. Cells were then incubated at least 5 hours at 37° C. to prepare screening cells.
Assay plates were prepared by dispensing 5 μL, of compound per well of a 384 well plate to achieve final compound concentration of 10 μM and no more than 0.5% DMSO. Media was removed from the screening cells, the cells trypsinized, harvested cells by centrifugation, counted, and plated at a density of approximately 8000 cells per well in the 384 well assay plate prepared above in a volume of about 45 μL. Assay plates containing both compounds and screening cells (50 μL, in total volume) were incubated for 20 hours at 37° C.
After incubation with compounds, media was removed from the cells and luciferase assay reagent (30 μL/well) added. After ˜2 minutes at ambient temperature, the assay plates were read on a luminometer (PE Biosystems Northstar reader with on-board injectors, or equivalent).
The LXR/LXRE co-transfection assay can be used to establish the EC50/IC50 values for potency and percent activity or inhibition for efficacy. Efficacy defines the activity of a compound relative to a high control ((N-(3-((4-fluorophenyl)-(naphthalene-2-sulfonyl)amino)propyl)-2,2-dimethylpropionamide)) or a low control (DMSO/vehicle). The dose response curves are generated from a 10 point curve with concentrations differing by ½ LOG units.
The data from this assay is fitted to the following equation, from which the EC50 value may be solved: Y=Bottom+(Top−Bottom)/(1+10^((logEC50-X)*HillSlope)).
The EC50/IC50 is therefore defined as the concentration at which an agonist or antagonist elicits a response that is half way between the Top (maximum) and Bottom (baseline) values. The EC50/IC50 values represented are the averages of at least 2 and normally 3 independent experiments. The determination of the relative efficacy or % control for an agonist is by comparison to the maximum response achieved by ((N-(3-((4-fluorophenyl)-(naphthalene-2-sulfonyl)-amino)propyl)-2,2-dimethylpropionamide) that is measured individually in each dose response experiment.

A value given as a limit tells only on which side of the number the result lay.

A word on the EC50: it is the concentration giving half of the maximal effect. With `CC(C)(O)c1cn(-c2ccc(-c3cccc(S(C)(=O)=O)c3)cc2)c(C(C)(C)c2ccccc2Cl)n1` [Compound No. 19, Table 1, WO 2007/002563, reference compound], the EC50 fell in the range of 0.101 to 1 µM and the Emax came to 38%.
For `CC(C)(O)c1cn(-c2ccc(-c3cc(F)c(CO)c(S(C)(=O)=O)c3)cc2)c(C(C)(C)c2ccccc2F)n1` [Example 1, 2-(1-(3′-fluoro-4′-(hydroxymethyl)-5′-(methylsulfonyl)biphenyl-4-yl)-2-(2-(2-fluorophenyl)propan-2-yl)-1H-imidazol-4-yl)propan-2-ol] the same measures were 0.101 to 1 µM and 13%.
For `Cc1cc(-c2cc(F)c(CO)c(S(C)(=O)=O)c2)ccc1-n1cc(C(C)(C)O)nc1C(C)(C)c1c(F)cccc1Cl` [Example 2, 2-(2-(2-(2-chloro-6-fluorophenyl)propan-2-yl)-1-(3′-fluoro-4′-(hydroxymethyl)-3-methyl-5′-(methylsulfonyl)biphenyl-4-yl)-1H-imidazol-4-yl)propan-2-ol] the same measures were less than 0.1 µM and 10%.
For `CC(C)(O)c1cn(-c2ccc(-c3cc(F)c(CO)c(S(C)(=O)=O)c3)cc2Cl)c(C(C)(C)c2c(Cl)cccc2Cl)n1` [Example 3, 2-(1-(3-chloro-3′-fluoro-4′-(hydroxymethyl)-5′-(methylsulfonyl)biphenyl-4-yl)-2-(2-(2,6-dichlorophenyl)propan-2-yl)-1H-imidazol-4-yl)propan-2-ol], the EC50 is less than 0.1 µM and the Emax was 6%.
On to `CC(C)(O)c1cn(-c2ccc(-c3cc(F)c(CO)c(S(C)(=O)=O)c3)cc2)c(C(C)(C)c2cccc(F)c2Cl)n1` [Example 4, 2-(2-(2-(2-chloro-3-fluorophenyl)propan-2-yl)-1-(3′-fluoro-4′-(hydroxymethyl)-5′-(methylsulfonyl)biphenyl-4-yl)-1H-imidazol-4-yl)propan-2-ol], for which the Emax turned out to be 12%.
For `CC(C)(O)c1cn(-c2ccc(-c3cc(F)c(CO)c(S(C)(=O)=O)c3)cc2)c(C(C)(C)c2c(Cl)cccc2Cl)n1` [Example 5, 2-(2-(2-(2,6-dichlorophenyl)propan-2-yl)-1-(3′-fluoro-4′-(hydroxymethyl)-5′-(methylsulfonyl)biphenyl-4-yl)-1H-imidazol-4-yl)propan-2-ol], the EC50 was less than 0.1 µM and the Emax worked out at 25%.
For `CC(C)(O)c1cn(-c2ccc(-c3cc(F)c(CO)c(S(C)(=O)=O)c3)cc2F)c(C(C)(C)c2ccccc2Cl)n1` [Example 6, 2-(2-(2-(2-Chloro-phenyl)propan-2-yl)-1-(3,3′-difluoro-4′-hydroxymethyl-5′-(methylsulfonyl)biphenyl-4-yl)-1H-imidazol-4-yl)-propan-2-ol] the same measures were less than 0.1 µM and 25%.
For `CC(C)(O)c1cn(-c2ccc(-c3cc(F)c(CO)c(S(C)(=O)=O)c3)cc2F)c(C(C)(C)c2c(F)cccc2Cl)n1` [Example 7, 2-(2-(2-(2-chloro-6-fluorophenyl)propan-2-yl)-1-(3,3′-difluoro-4′-(hydroxymethyl)-5′-(methylsulfonyl)biphenyl-4-yl)-1H-imidazol-4-yl)propan-2-ol] the same measures were less than 0.1 µM and 15%.
For `CC(C)(O)c1cn(-c2ccc(-c3cc(F)c(CO)c(S(C)(=O)=O)c3)cc2F)c(C(C)(C)c2ccccc2F)n1` [Example 8, 2-{1-(3,3′-Difluoro-4′-hydroxymethyl-5′-methanesulfonyl-biphenyl-4-yl)-2-[2-(2-fluorophenyl)propan-2-yl]-1H-imidazol-4-yl}-propan-2-ol] the same measures were less than 0.1 µM and 10%.
As to `CC(C)(O)c1cn(-c2ccc(-c3cc(F)c(CO)c(S(C)(=O)=O)c3)cc2F)c(C(C)(C)c2c(Cl)cccc2Cl)n1` [Example 9, 2-(2-(2-(2,6-dichlorophenyl)propan-2-yl)-1-(3,3′-difluoro-4′-(hydroxymethyl)-5′-(methylsulfonyl)biphenyl-4-yl)-1H-imidazol-4-yl)propan-2-ol], the Emax was found to be 20%.
In turn, `CC(C)(O)c1cn(-c2ccc(-c3cc(F)c(CO)c(S(C)(=O)=O)c3)cc2F)c(Cc2ccc(Cl)cc2Cl)n1` [Example 11, 2-(2-(2,4-dichlorobenzyl)-1-(3,3′-difluoro-4′-(hydroxymethyl)-5′-(methylsulfonyl)biphenyl-4-yl)-1H-imidazol-4-yl)propan-2-ol] displayed an EC50 greater than 1 µM.
With `CC(C)(O)c1cn(-c2ccc(-c3cc(F)c(CO)c(S(C)(=O)=O)c3)cc2F)c(Cc2ccccc2C(F)(F)F)n1` [Example 12, 2-(1-(3,3′-difluoro-4′-(hydroxymethyl)-5′-(methylsulfonyl)biphenyl-4-yl)-2-(2-(trifluoromethyl)benzyl)-1H-imidazol-4-yl)propan-2-ol], the EC50 was less than 0.1 µM and the Emax stood at 13%.
For the compound `CC(C)(O)c1cn(-c2ccc(-c3cc(F)c(CO)c(S(C)(=O)=O)c3)cc2Cl)c(Cc2ccc(F)cc2Cl)n1` [Example 13, 2-(1-(3-chloro-3′-fluoro-4′-(hydroxymethyl)-5′-(methylsulfonyl)biphenyl-4-yl)-2-(2-chloro-4-fluorobenzyl)-1H-imidazol-4-yl)propan-2-ol], the EC50 was less than 0.1 µM and the Emax worked out at 18%.
For `CC(C)(O)c1cn(-c2ccc(-c3cc(F)c(CO)c(S(C)(=O)=O)c3)cc2F)c(Cc2ccc(F)cc2Cl)n1` [Example 14, 2-(2-(2-chloro-4-fluorobenzyl)-1-(3,3′-difluoro-4′-(hydroxymethyl)-5′-(methylsulfonyl)biphenyl-4-yl)-1H-imidazol-4-yl)propan-2-ol] the same measures were less than 0.1 µM and 15%.
On the same counts, the results for `CC(C)(O)c1cn(-c2ccc(-c3cc(F)c(CO)c(S(C)(=O)=O)c3)cc2)c(Cc2ccc(Cl)cc2Cl)n1` [Example 15, 2-(2-(2,4-dichlorobenzyl)-1-(3′-fluoro-4′-(hydroxymethyl)-5′-(methylsulfonyl)biphenyl-4-yl)-1H-imidazol-4-yl)propan-2-ol] are less than 0.1 µM and 8%.

(Values after US8618154B2, “LXR modulators” (Bristol-Myers Squibb Company, priority 2009, dated 2013).)
